Results reported in PubChem BioAssay AID248 (DTP/NCI, 2004).
Where “and” joins values, the source holds several entries; their conditions need not be identical. Equal entries are not always repeated. Toxic doses and inconclusive results are not listed. Rule as the data show it: active = T/C of 150% or more; inactive = T/C below 125%.

Tested on: L1210 leukemia ip in BDF1 mice, survival T/C
Assay: NCI In Vivo Anticancer Drug Screen. Data for tumor model L1210 Leukemia (intraperitoneal) in B6D2F1 (BDF1) mice
Conditions: endpoint: mean survival time, higher = longer survival
How it was run: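 Transplantable tumor model; survival measured in treated vs vehicle control mice. Value = treated/control.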

[1] = dose: 100.0 mg/kg/injection, schedule: Q01DX009 (ip), vehicle: Klucel (hydroxypropylcellulose) (HPC)
[2] = dose: 100.0 mg/kg/injection, schedule: Q04DX003 (ip), vehicle: Klucel (hydroxypropylcellulose) (HPC)
[3] = dose: 200.0 mg/kg/injection, schedule: Q01DX009 (ip), vehicle: Klucel (hydroxypropylcellulose) (HPC)
[4] = dose: 200.0 mg/kg/injection, schedule: Q04DX003 (ip), vehicle: Klucel (hydroxypropylcellulose) (HPC)
[5] = dose: 400.0 mg/kg/injection, schedule: Q01DX009 (ip), vehicle: Klucel (hydroxypropylcellulose) (HPC)
[6] = dose: 400.0 mg/kg/injection, schedule: Q04DX003 (ip), vehicle: Klucel (hydroxypropylcellulose) (HPC)
[7] = dose: 25.0 mg/kg/injection, schedule: Q01DX009 (ip), vehicle: saline
[8] = dose: 100.0 mg/kg/injection, schedule: Q01DX001 (ip), vehicle: saline
[9] = dose: 200.0 mg/kg/injection, schedule: Q01DX001 (ip), vehicle: saline
[10] = dose: 400.0 mg/kg/injection, schedule: Q01DX001 (ip), vehicle: saline
[11] = dose: 50.0 mg/kg/injection, schedule: Q01DX009 (ip), vehicle: saline with Tween-80
[12] = dose: 100.0 mg/kg/injection, schedule: Q01DX009 (ip), vehicle: saline with Tween-80
[13] = dose: 100.0 mg/kg/injection, schedule: Q04DX003 (ip), vehicle: saline with Tween-80
[14] = dose: 200.0 mg/kg/injection, schedule: Q04DX003 (ip), vehicle: saline with Tween-80
[15] = dose: 400.0 mg/kg/injection, schedule: Q04DX003 (ip), vehicle: saline with Tween-80

Measured: T/C

O=C(Nc1ccccc1C(F)(F)F)C(c1ccccc1)c1ccccc1
inactive: [1] 93 % of control | [2] 96 % of control | [3] 88 % of control | [4] 96 % of control | [5] 90 % of control | [6] 95 % of control

COC(=O)CC1(O)C=CC(=O)C=C1
inactive: dose: 6.25 mg/kg/injection, schedule: Q01DX009 (ip), vehicle: Klucel (hydroxypropylcellulose) (HPC) 95 % of control | dose: 12.5 mg/kg/injection, schedule: Q01DX009 (ip), vehicle: Klucel (hydroxypropylcellulose) (HPC) 92 % of control | dose: 25.0 mg/kg/injection, schedule: Q01DX009 (ip), vehicle: Klucel (hydroxypropylcellulose) (HPC) 108 % of control | [7] 100 % of control

O=C1/C(=C\c2ccccc2)SC(=Nc2ccccc2)N1c1ccccc1
inactive: [1] 101 % of control | [2] 104 % of control | [3] 98 % of control | [4] 96 % of control | [5] 93 % of control | [6] 94 % of control

CC(=O)n1cc(/C=C2\N=C(c3ccccc3)OC2=O)c2ccccc21
inactive: [1] 94 % of control | [3] 96 % of control | [5] 94 % of control

Cc1ccc(Oc2c3c(nc4ccccc24)CCCC3)cc1
inactive: [1] 104 % of control | [2] 101 % of control | [3] 98 % of control | [4] 96 % of control | [5] 96 % of control | [6] 93 % of control

CCCSc1ncnc2c1ncn2COC(=O)NC
inactive: [8] 97 % of control | [9] 108 % of control | [10] 108 % of control

CCc1cc(CC)c(/C(Cl)=C/C(=O)NCC(=O)O)c(CC)c1Br
inactive: dose: 75.0 mg/kg/injection, schedule: Q04DX003 (ip), vehicle: Klucel (hydroxypropylcellulose) (HPC) 95 % of control | dose: 150.0 mg/kg/injection, schedule: Q04DX003 (ip), vehicle: Klucel (hydroxypropylcellulose) (HPC) 93 % of control | dose: 300.0 mg/kg/injection, schedule: Q04DX003 (ip), vehicle: Klucel (hydroxypropylcellulose) (HPC) 87 % of control

CCOC(=O)c1cc(C)[nH]c1C
inactive: dose: 100.0 mg/kg/injection, schedule: Q01DX009 (ip), vehicle: gum acacia 100 % of control | dose: 200.0 mg/kg/injection, schedule: Q01DX009 (ip), vehicle: gum acacia 95 % of control | dose: 400.0 mg/kg/injection, schedule: Q01DX009 (ip), vehicle: gum acacia 105 % of control

CC(C)N(c1ccc(C(=NO)c2ccc(N(C(C)C)C(C)C)cc2)cc1)C(C)C
inactive: [2] 90 % of control | [4] 88 % of control | [6] 92 % of control

NC(=O)C(=O)c1ccco1
inactive: [8] 92 % of control | [9] 101 % of control | [10] 108 % of control

COc1cc(CCC(=O)O)cc(OC)c1OC
inactive: dose: 100.0 mg/kg/injection, schedule: Q04DX002 (ip), vehicle: saline with Tween-80 116 % of control | dose: 200.0 mg/kg/injection, schedule: Q04DX002 (ip), vehicle: saline with Tween-80 89 % of control | dose: 400.0 mg/kg/injection, schedule: Q04DX002 (ip), vehicle: saline with Tween-80 106 % of control

O=C(NCCCCCCCCCCNC(=O)Nc1cccc(C2=NCC(O)CN2)c1)Nc1cccc(C2=NCC(O)CN2)c1 (centres undefined)
inactive: dose: 5.25 mg/kg/injection, schedule: Q01DX Z (ip), vehicle: carboxymethylcellulose (CMC) 106 % of control | dose: 10.5 mg/kg/injection, schedule: Q01DX Z (ip), vehicle: carboxymethylcellulose (CMC) 117 % of control | dose: 21.0 mg/kg/injection, schedule: Q01DX Z (ip), vehicle: carboxymethylcellulose (CMC) 103 % of control | dose: 42.0 mg/kg/injection, schedule: Q01DX Z (ip), vehicle: carboxymethylcellulose (CMC) 97 % of control

CCOCN(C)C
inactive: dose: 25.0 mg/kg/injection, schedule: Q01DX001 (ip), vehicle: saline 103 % of control | [7] 103 % of control | dose: 25.0 mg/kg/injection, schedule: Q04DX003 (ip), vehicle: saline 100 % of control | dose: 44.0 mg/kg/injection, schedule: Q01DX009 (ip), vehicle: saline 110 % of control | dose: 50.0 mg/kg/injection, schedule: Q01DX001 (ip), vehicle: saline 94 % of control | dose: 50.0 mg/kg/injection, schedule: Q01DX009 (ip), vehicle: saline 105 % of control | dose: 50.0 mg/kg/injection, schedule: Q04DX003 (ip), vehicle: saline 100 % of control | dose: 66.0 mg/kg/injection, schedule: Q01DX009 (ip), vehicle: saline 103 % of control | [8] 97 % of control and 107 % of control | dose: 100.0 mg/kg/injection, schedule: Q01DX009 (ip), vehicle: saline 97 % of control | dose: 100.0 mg/kg/injection, schedule: Q04DX003 (ip), vehicle: saline 105 % of control

CCCCCCCCCCCCCCCCOP(=O)(O)OCCCCCCCCCCCCCCCC
inactive: [11] 98 % of control | [12] 91 % of control | [13] 105 % of control | dose: 200.0 mg/kg/injection, schedule: Q01DX009 (ip), vehicle: saline with Tween-80 89 % of control | [14] 90 % of control | dose: 400.0 mg/kg/injection, schedule: Q01DX009 (ip), vehicle: saline with Tween-80 93 % of control | [15] 95 % of control

CCCCCCCCCCCCn1ncc2ccc([N+](=O)[O-])cc21
inactive: [10] 96 % of control

Brc1ccc2[nH]c3c(c2c1)CSc1ccccc1-3
inactive: [13] 105 % of control | [14] 99 % of control | [15] 103 % of control

COC(=O)c1nc(-c2ccc3c(n2)C(=O)C(N)=C(OC)C3=O)c(N)c(-c2ccc(OC)c(OC)c2O)c1C
inactive: dose: 0.5 mg/kg/injection, schedule: Q01DX015 (ip), vehicle: water 116 % of control | dose: 1.0 mg/kg/injection, schedule: Q01DX001 (ip), vehicle: water 110 % of control | dose: 1.0 mg/kg/injection, schedule: Q01DX015 (ip), vehicle: water 119 % of control | dose: 2.0 mg/kg/injection, schedule: Q01DX001 (ip), vehicle: water 109 % of control | dose: 2.0 mg/kg/injection, schedule: Q01DX015 (ip), vehicle: water 98 % of control | dose: 3.0 mg/kg/injection, schedule: Q01DX001 (ip), vehicle: carboxymethylcellulose (CMC) 104 % of control | dose: 6.0 mg/kg/injection, schedule: Q01DX001 (ip), vehicle: carboxymethylcellulose (CMC) 110 % of control | dose: 12.0 mg/kg/injection, schedule: Q01DX001 (ip), vehicle: carboxymethylcellulose (CMC) 105 % of control | dose: 24.0 mg/kg/injection, schedule: Q01DX001 (ip), vehicle: carboxymethylcellulose (CMC) 104 % of control | dose: 48.0 mg/kg/injection, schedule: Q01DX001 (ip), vehicle: carboxymethylcellulose (CMC) 105 % of control

O=S(=O)(O)c1ccc(-c2c3nc(c(-c4ccc(S(=O)(=O)O)cc4)c4ccc([nH]4)c(-c4ccc(S(=O)(=O)O)cc4)c4nc(c(-c5ccc(S(=O)(=O)O)cc5)c5ccc2[nH]5)C=C4)C=C3)cc1
inactive: dose: 12.5 mg/kg/injection, schedule: Q01DX009 (ip), vehicle: saline with Tween-80 90 % of control | dose: 25.0 mg/kg/injection, schedule: Q01DX009 (ip), vehicle: saline with Tween-80 90 % of control | [11] 98 % of control | [12] 88 % of control

CCC(/C=N/NC(N)=O)c1ccccc1OC (centres undefined)
inactive: [8] 96 % of control | [9] 104 % of control | [10] 109 % of control

COc1ccc(CCNC(=O)Cc2ccc([N+](=O)[O-])cc2)cc1OC
inactive: dose: 100.0 mg/kg/injection, schedule: Q01DX001 (ip), vehicle: carboxymethylcellulose (CMC) 89 % of control | dose: 200.0 mg/kg/injection, schedule: Q01DX001 (ip), vehicle: carboxymethylcellulose (CMC) 98 % of control | dose: 400.0 mg/kg/injection, schedule: Q01DX001 (ip), vehicle: carboxymethylcellulose (CMC) 93 % of control
